Data taken from patent US6258790A, “Antisense modulation of integrin α4 expression” (Isis Pharmaceuticals, Inc., priority 1999, dated 2001).

System: human integrin α4
Test: Inhibition of human integrin α4 protein levels by antisense oligonucleotides (LIPOFECTIN, flow cytometry with CD49d-FITC) in A375 melanoma cells
Type: cell-based
Design: % Inhib.: tested at 200 nM
Conditions: for % Control (integrin α4 protein) / % Inhib (integrin α4 protein): Table 1, 200 nM oligonucleotide, 6 ug/ml LIPOFECTIN; for % CONTROL 48 hr / % INHIB 48 hr / % CONTROL 72 hr / % INHIB 72 HR: Table 2, A375; for inhibition (Example 11): Example 11 assay
Description: Integrin α4 protein levels can be quantitated in a variety of ways well known in the art, such as immunoprecipitation, Western blot analysis (immunoblotting), ELISA or fluorescence-activated cell sorting (FACS). Antibodies directed to integrin α4 can be identified and obtained from a variety of sources, such as the MSRS catalog of antibodies (Aerie Corporation, Birmingham, Mich.), or can be prepared via conventional antibody generation methods.
Target sites are indicated by nucleotide numbers, as given in the sequence source reference (GenBank accession no. L12002), to which the oligonucleotide binds. All compounds in Table 1 are 18 nucleotides in length, with a phosphorothioate backbone and a centered 10-base deoxynucleotide gap flanked by 2'-methoxyethoxy (2'MOE) wings. Human A375 melanoma cells (American Type Culture Collection, Manassas, Va.) were plated at 2000 cells/cm^2 two days before oligonucleotide treatment. Cells were treated with oligonucleotides at a dose of 200 nM oligonucleotide and 6 ug/ml LIPOFECTIN for four hours. Cells were incubated overnight and harvested with 2 mM EDTA in PBS. Cells were washed in 2% bovine serum albumin, 0.2% sodium azide in D-PBS at 4° C. Cells were centrifuged at 200×g, and the supernatant was decanted. […] Antibodies were incubated with the cells for 30 minutes at 4° C. in the dark, under gentle agitation. Cells were washed again as above and then resuspended in 0.3 ml of FacsFlow buffer with 0.5% formaldehyde. Cells were analyzed on Becton Dickinson FACScan. Results are expressed as percentage of control expression based on mean fluorescence intensity.
Cells were harvested with trypsin at 48 and 72 hours after oligonucleotide treatment and stained with 2 ug/ml CD49d-FITC as in the previous example.
Where backbones are mixed, linkages are shown as "s" for phosphorothioate (P=S or PS) and "o" for phosphodiester (P=O or PO). Where target region is indicated as `M62841,` oligonucleotides are targeted to the promotor region whose sequence is described in GenBank Accession No. M62841. Remaining oligonucleotides are targeted to the sequence described in Genbank Accession No. L12002 and their target sites on the L12002 sequence are indicated.
Target sites refer to nucleotide numbers on the target sequence (GenBank Accession No. L12002) to which the oligonucleotides hybridize.
Oligonucleotides were synthesized as "gapmers" consisting of a 9-nucleotide region of deoxynucleotides flanked by three 2'-O-methoxyethyl(2'-MOE) nucleotides on the 5' end and eight 2'-MOE nucleotides on the 3' end. 2'-MOE nucleotides are shown in bold in the table. Oligonucleotides were synthesized with phosphorothioate backbones throughout, and all cytosines are 5-methylcytosines.

[1] = Table 24, A375 cells, lipofectin, as Example 8

24448 (ACTGAAGCGTTGGCGAGC; chemistry not given here) [compound 24448]
% Control (integrin α4 protein) (A375 cells): 55% | % Inhib (integrin α4 protein) (A375 cells): 45%

107232 (antisense CCGGTTTCTGCCGCCGAGCC; chemistry not given here) [compound 107232]
% Control [1]: 83% | % Inhib. [1]: 17%

107236 (antisense GCCTCGCTTCCCAAGCCATG; chemistry not given here) [compound 107236]
% Control [1]: 43%

24459 (GAAAATGACCAGCTCCGA; chemistry not given here) [compound 24459]
% Control (integrin α4 protein) (A375 cells): 61% | % Inhib (integrin α4 protein) (A375 cells): 39%

24454 (TTCTTTTACTCAGTTCTG; chemistry not given here) [compound 24454]
% Control (integrin α4 protein) (A375 cells): 53% | % Inhib (integrin α4 protein) (A375 cells): 47%

24468 (CCATCTGCACGGCCATTG; chemistry not given here) [compound 24468]
% Control (integrin α4 protein) (A375 cells): 72% | % Inhib (integrin α4 protein) (A375 cells): 28%

24460 (TTTCATGTAAGATATTTA; chemistry not given here) [compound 24460]
% Control (integrin α4 protein) (A375 cells): 94%

24442 (ATGAGGCGCAGCGTGTCC; chemistry not given here) [compound 24442]
% Control (integrin α4 protein) (A375 cells): 82% | % Inhib (integrin α4 protein) (A375 cells): 18%

24739 (TTTAGTGACAAAGACGTTAT; phosphorothioate deoxy, further chemistry not given here) [compound 24739]
% Control (Table 4, 10 nM): 69% | % Inhib. (Table 4, 10 nM): 31% | % Control (Table 4, 30 nM): 67% | % Inhib. (Table 4, 30 nM): 33% | % Control (Table 4, 100 nM): 121% | % Control (Table 4, 300 nM): 107%

24467 (TCATCTTCTTGTGGAGCT; chemistry not given here) [compound 24467]
% Control (integrin α4 protein) (A375 cells): 101%

107234 (antisense CTTCCCAAGCCATGCGCTCT; chemistry not given here) [compound 107234]
% Control [1]: 47%

100025 (antisense CCCAGCACATCGGCTCTCGG; chemistry not given here) [compound 100025]
% Control [1]: 97% | % Inhib. [1]: 3%

24452 (GGATCCATTTTCTCCTGG; chemistry not given here) [compound 24452]
% Control (integrin α4 protein) (A375 cells): 60% | % Inhib (integrin α4 protein) (A375 cells): 40%

24475 (GCCCTTATATGAGAAACA; phosphorothioate, 2'-MOE/deoxy, further chemistry not given here) [compound 24475]
inhibition (Example 10) (Example 10 assay, dose not stated): ≥ 40% | % Control (integrin α4 protein) (A375 cells): 48% | % CONTROL 48 hr (50 nM): 60% | % INHIB 48 hr (50 nM): 40% | % CONTROL 72 hr (50 nM): 69% | % INHIB 72 HR (50 nM): 31% | % CONTROL 48 hr (100 nM): 31% | % INHIB 48 hr (100 nM): 69% | % CONTROL 72 hr (100 nM): 44% | % INHIB 72 HR (100 nM): 56% | % CONTROL 48 hr (200 nM): 30% | % INHIB 48 hr (200 nM): 70% | % CONTROL 48 hr (400 nM): 39% | % INHIB 48 hr (400 nM): 61% | % CONTROL 72 hr (400 nM): 52% | % INHIB 72 HR (400 nM): 48% | % Control (Table 4, 10 nM): 97% | % Control (Table 4, 30 nM): 73% | % Inhib. (Table 4, 30 nM): 27% | % Control (Table 4, 100 nM): 84% | % Inhib. (Table 4, 100 nM): 16% | % Control (Table 4, 300 nM): 55% | % Inhib. (Table 4, 300 nM (highest dose)): 45%

24457 (TTATTTGTAGTTATATTG; chemistry not given here) [compound 24457]
% Control (integrin α4 protein) (A375 cells): 106%

24740 (GAAGGCCCCTGGGGAACATT; phosphorothioate deoxy, further chemistry not given here) [compound 24740]
% Control (Table 4, 10 nM): 122% | % Control (Table 4, 30 nM): 119% | % Control (Table 4, 100 nM): 106% | % Control (Table 4, 300 nM): 88% | % Inhib. (Table 4, 300 nM (highest dose)): 12%

24458 (CCTAAATAACTTCCAAAT; chemistry not given here) [compound 24458]
% Control (integrin α4 protein) (A375 cells): 88% | % Inhib (integrin α4 protein) (A375 cells): 12%

107253 (antisense TCTTTGGCTGTATTATTACC; chemistry not given here) [compound 107253]
% Control [1]: 29%

24441 (CCTGGGATGCCGCGCACT; chemistry not given here) [compound 24441]
% Control (integrin α4 protein) (A375 cells): 112%

24461 (CCACAGCACAGACAGAAG; chemistry not given here) [compound 24461]
% Control (integrin α4 protein) (A375 cells): 69% | % Inhib (integrin α4 protein) (A375 cells): 31%

107249 (antisense CTTGTAAACAGTGTCTTTTA; chemistry not given here) [compound 107249]
% Control [1]: 38%

26642 (TCAGGGTGGCTTAAAGAAGC; phosphorothioate, 2'-MOE/deoxy, further chemistry not given here) [compound 26642]
inhibition (Example 11) (dose not stated): ≥ 40% | % Control (Table 6, 10 nM): 84% | % Inhib. (Table 6, 10 nM): 16% | % Control (Table 6, 30 nM): 77% | % Inhib. (Table 6, 30 nM): 23% | % Control (Table 6, 100 nM): 56% | % Inhib. (Table 6, 100 nM): 44% | % Control (Table 6, 300 nM): 23% | % Inhib. (Table 6, 300 nM (highest dose)): 77% | % Control [1]: 67% | % Inhib. [1]: 33%

26644 (TTTCCATTCTCTCAATTTGA; phosphorothioate, 2'-MOE/deoxy, further chemistry not given here) [compound 26644]
inhibition (Example 11) (dose not stated): ≥ 40% | % Control (Table 6, 10 nM): 99% | % Control (Table 6, 30 nM): 94% | % Control (Table 6, 100 nM): 78% | % Inhib. (Table 6, 100 nM): 22% | % Control (Table 6, 300 nM): 48% | % Inhib. (Table 6, 300 nM (highest dose)): 52%

24453 (GCTTATTTTCATTCTTTA; chemistry not given here) [compound 24453]
inhibition (Example 11) (dose not stated): ≥ 40% | % Control (integrin α4 protein) (A375 cells): 47% | % CONTROL 48 hr (50 nM): 79% | % INHIB 48 hr (50 nM): 21% | % CONTROL 72 hr (50 nM): 78% | % INHIB 72 HR (50 nM): 22% | % CONTROL 48 hr (100 nM): 95% | % CONTROL 72 hr (100 nM): 93% | % CONTROL 48 hr (200 nM): 38% | % INHIB 48 hr (200 nM): 62% | % CONTROL 72 hr (200 nM): 64% | % INHIB 72 HR (200 nM): 36% | % CONTROL 48 hr (400 nM): 41% | % INHIB 48 hr (400 nM): 59% | % CONTROL 72 hr (400 nM): 58% | % INHIB 72 HR (400 nM): 42% | % Control (Table 6, 10 nM): 88% | % Inhib. (Table 6, 10 nM): 12% | % Control (Table 6, 30 nM): 90% | % Inhib. (Table 6, 30 nM): 10% | % Control (Table 6, 100 nM): 80% | % Inhib. (Table 6, 100 nM): 20% | % Control (Table 6, 300 nM): 43% | % Inhib. (Table 6, 300 nM (highest dose)): 57%

24744 (AGACGTTATGGCTATTCTCT; phosphorothioate, 2'-MOE, 5-methyl-C, further chemistry not given here) [compound 24744]
% Control (Table 4, 10 nM): 121% | % Control (Table 4, 30 nM): 110% | % Control (Table 4, 100 nM): 118% | % Control (Table 4, 300 nM): 118%

107242 (antisense TGAGATCAACAGAAGTACAA; chemistry not given here) [compound 107242]
% Control [1]: 44%

24477 (TCCATTCTCTCAATTTGA; chemistry not given here) [compound 24477]
inhibition (Example 11) (dose not stated): ≥ 40% | % Control (integrin α4 protein) (A375 cells): 43% | % CONTROL 48 hr (50 nM): 56% | % INHIB 48 hr (50 nM): 44% | % CONTROL 72 hr (50 nM): 72% | % INHIB 72 HR (50 nM): 28% | % CONTROL 48 hr (100 nM): 47% | % INHIB 48 hr (100 nM): 53% | % CONTROL 72 hr (100 nM): 67% | % INHIB 72 HR (100 nM): 33% | % CONTROL 48 hr (200 nM): 34% | % INHIB 48 hr (200 nM): 66% | % CONTROL 72 hr (200 nM): 44% | % INHIB 72 HR (200 nM): 56% | % CONTROL 48 hr (400 nM): 35% | % INHIB 48 hr (400 nM): 65% | % CONTROL 72 hr (400 nM): 53% | % INHIB 72 HR (400 nM): 47% | % Control (Table 6, 10 nM): 83% | % Inhib. (Table 6, 10 nM): 17% | % Control (Table 6, 30 nM): 80% | % Inhib. (Table 6, 30 nM): 20% | % Control (Table 6, 100 nM): 63% | % Inhib. (Table 6, 100 nM): 37% | % Control (Table 6, 300 nM): 33% | % Inhib. (Table 6, 300 nM (highest dose)): 67%

24443 (CAAAGTTGCACGGGATGC; chemistry not given here) [compound 24443]
% Control (integrin α4 protein) (A375 cells): 63% | % Inhib (integrin α4 protein) (A375 cells): 37%

24455 (TCACATAATCTTGATAAC; chemistry not given here) [compound 24455]
% Control (integrin α4 protein) (A375 cells): 81% | % Inhib (integrin α4 protein) (A375 cells): 19%
